Data taken from patent US11255855B1, “COVID-19 spike-ACE2 binding assay for drug and antibody screening” (priority 2020, dated 2022).

Legend:
[1] = test system: SARS-COV-2-S-driven entry; type: cell-based, SARS-CoV-2 spike pseudovirus in A549 cells
VSV-G-driven entry = type: cell-based, VSV-G pseudovirus

| SMILES | inhibition of SARS-COV-2-S-driven entry (in words) [1] | inhibition of VSV-G-driven entry (in words) (VSV-G-driven entry) | blocking effect on pseudovirus entry into host A549 cells [1] |
| --- | --- | --- | --- |
| CCN1CCN(C(=O)N[C@@H](C(=O)N[C@@H]2C(=O)N3C(C(=O)O)=C(CSc4nnnn4C)CS[C@H]23)c2ccc(O)cc2)C(=O)C1=O [cefoperazone] | No inhibition |  |  |
| CN(C)C(=O)COC(=O)Cc1ccc(OC(=O)c2ccc(NC(=N)N)cc2)cc1 [camostat, Camostat Mesilate] | No inhibition |  |  |
| COc1cc(C(=O)NS(=O)(=O)c2ccccc2C)ccc1Cc1cn(C)c2ccc(NC(=O)OC3CCCC3)cc12 [Zafirlukast] | inhibited | not VSV-G-driven entry | blocking effect |
